Test results as given in patent US12220461B2, “Polypeptide-coupled small molecule compound and antiviral application thereof” (Guangzhou Medical University, priority 2023, dated 2025).
pIC50: −log10 of the molar value. Starred links: 1 amine or outer side, 2 acyl side, 3 side chain; linkers in the order of their positions; H or OH if unused. Non-standard residues stand in square brackets, D forms with d. Residues, ends and D or L forms follow the SMILES beside them. ξ: configuration not given here. *: point of attachment. X1 = Cc1ccc(N[*:1])cc1C(=O)[*:2]; X2 = C[C@@H](N*)c1cccc2ccccc12; X3 = S=c1nc(N*)[nH]c2nc[nH]c12; ξR = N=C(N)NCCCC(N)C(=O)O; ξL = CC(C)CC(N)C(=O)O; ξS = NC(CO)C(=O)O

What was measured:
[1] = system: A549 cells, MLE-12 cells and 293T cells
SARS-CoV-2 = type: cell-based
293T cells = settings: same concentration, 24 h
Experimental: 9.1 Plating: 293T cells in logarithmic growth phase are inoculated into a 96-well plate (100 μL/well), triplicate wells are made in each group, and the number of cells in each well is set at 5×10^3. The cells are put in a 5% CO2 incubator at 37° C. for 12 h.
The dosage concentrations are set to 100 μM, 50 μM, 25 μM, 12.5 μM, 6.25 μM and 3.125 μM, and the dosage volume is 2 μL. The control group is added with 2 μL DMSO. Then, they are put in a 5% CO2 incubator at 37° C. for culture.
9.3 After 24 hours, the cells are washed with PBS twice, and then added 100 μL of pre-mixed CCK8 solution (medium: CCK8 working solution=9:1) to each well to avoid introduction of bubbles in the operation. Culture is continued for 2 h in a 5 6% CO2 incubator at 37° C.
9.4 The absorbance D(λ) of each well at the wavelength of 450 nm is determined by the microplate reader. D(λ) values of the negative control group, the control group and the experimental group are analyzed to determine the cell activity. Cell viability reflects the cytotoxicity of the drug. The groups are as follows: • the experimental group (medium containing cells, CCK-8, the drug to be tested); • the control group (medium containing cells, CCK-8, without drug to be tested); and • the negative control group (medium without cells and the substance to be detected, with CCK-8).

PLpro = target: T1, PLpro (Severe acute respiratory syndrome coronavirus 2, UniProt P0DTD1); assay: cell-based; parameters: species or system SARS-CoV-2
T1 construct: expressed in transfected cells; host or cells: 293T cells

SMILES	cytotoxicity (CCK8 cell viability) [1]	IC50 for inhibition of CPE induced by SARS-CoV-2 (SARS-CoV-2)	cytotoxicity (CCK8 cell viability) (293T cells)	pIC50 (PLpro)
Cc1ccc(N)cc1C(=O)N[C@H](C)c1cccc2ccccc12 [GRL0617, reference compound]	great cytotoxicity	–	–	–
CC(C)CC(NC(=O)C(CCCNC(=N)N)NC(=O)C(N)CO)C(=O)NC(CCCNC(=N)N)C(=O)NCC(=O)NCC(=O)Nc1nc(=S)c2[nH]cnc2[nH]1 (centres unmarked) [RG-6] (H-SRLRGG-X3; configuration not given here)	–	lower than 6-TG	less cytotoxicity than 6-TG	–
Cc1ccc(NC(=O)CNC(=O)CNC(=O)C(CCCNC(=N)N)NC(=O)C(CC(C)C)NC(=O)C(CCCNC(=N)N)NC(=O)C(N)CO)cc1C(=O)N[C@H](C)c1cccc2ccccc12 (some centres unmarked) [RG-17] (H-[ξS][ξR][ξL][ξR]GG[X1]-X2)	does not affect the cell growth	–	–	4.86
